This is an account of results in patent US20260266805A1, “METHOD AND COMPOSITIONS FOR ANALYZING TOXICITY IN ORGANISMS” (priority 2023, published 2026).

One data set concerns C. elegans N2 wild type. The experiment in a line: vivoChip-24x C. elegans DART assay (72 hr liquid culture from L1, 4D imaging of D1 adults). Format: in vivo. As to the method:
(§1) Strains and maintenance: The study used the N2 wild type (The Caenorhabditis Natural Diversity Resource, CaeNDR) for all experiments except for the initial vivoChip-2× pilot study, where the study used N2 wild types from the Caenorhabditis Genetics Center (CGC). C. elegans were maintained using the standard methods on nematode growth media (NGM) plates seeded with HB101 Escherichia coli bacteria and maintained at 20° C.. Frozen stocks of strains were also maintained at −80° C. and thawed each year to generate a new set of Dauer plates. Sealed Dauer plates for each strain were stored at 16° C. and used to start a fresh maintenance culture every 3 months by chunking to avoid genetic drift. Worms were cultured for >5 generations before using them for assays in a temperature and humidity-controlled environment.
Food preparation: HB101 was streaked on a Luria-Bertani (LB) agar plate with streptomycin (antibiotic) and incubated overnight at 37° C. to generate single colonies. One colony was picked and used to inoculate an overnight 5 mL starter culture in LB broth and antibiotic. 200 μl of this starter culture was added to 200 mL LB broth/streptomycin in a 1000 mL baffled flask and incubated for 18 h with 180 rotations per min (rpm) shaking to reach the end of the log growth phase. OD600 was measured using an Implen DiluPhotometer, and the culture was stored at 4° C. Immediately before worm culture, a sufficient volume of the bacterial culture was centrifuged to generate the required volume of OD600^=3.0 food suspension. The LB supernatant was removed and the pellet was resuspended in S media. This density was optimal for growing 80-100 larval 1 (L1) to the day 1 (D1) adult stage in a 500 μl culture volume with food remaining after 72 hrs, but not so much residual food particles as to interfere with imaging or chip operation.
Chemicals: Methylmercury (II) hydroxide (CH3Hg, Alfa Aesar, CAS #1184-57-2) and 5-Fluoro-2′-deoxyuridinc (FUdR, TCI Chemical, CAS #50-91-9) were dissolved in ultrapure water as master stocks at 200× highest treatment concentration. Propiconazole (Sigma Aldrich, CAS #60207-90-1) was dissolved in dimethylsulfoxide (Sigma Aldrich, CAS #67-68-5) as master stocks at 500× highest treatment concentration. The master stocks were transferred into 0.2 ml tubes as single-use aliquots and kept at −80° C. until needed. The 1 μM dose of CH3Hg was prepared by diluting the stock in ultrapure water prior to the treatment. For the dose-response assays, propiconazole was diluted immediately prior to treatment by serial dilution in DMSO to 500× working dilutions as needed, so that the final DMSO concentration in each well would be 0.2%. DMSO was also added to both the solvent control wells and the CH3Hg control wells to 0.2%.
(§2) Worm synchronization and large-scale culture: To prepare large numbers of synchronized L1 stage larvae, P0 larval 4 (L4) worms were transferred to NGM plates and grown for 96 hrs till the F1 generation reached maturity, removing the P0 adults after 48 hrs. D1 animals were treated with an alkaline sodium hypochlorite solution with periods of slow and high-speed shaking on a speed-controllable vortex to fragment their bodies and release the embryos before the bleaching solution was neutralized with 5 washes of M9. The eggs were allowed to develop and hatch in the M9 buffer in a rotating glass conical tube for 24 hrs. Hatched synchronized L1s were filtered through a 20 μm cell filter to remove unhatched eggs and debris, counted the number of total larvae, and adjusted the volume to make a final suspension of L1 larvae at a density of ~100 L1s/20 μl.
Chemical treatment in liquid culture: The age-synchronized L1 suspension (~100 larvae in 20 μl volumes) was placed in a standard 24-well plate with 480 μl HB101 (OD600^=3.0) suspension in S media. 2.5 μl of chemicals dissolved in H2O, or 1 μL of the chemicals in DMSO were added to the designated wells, keeping solvent concentration constant across all wells. […]

Another data set concerns Fathead minnow. Conditions: cited from earlier work.
For a further data set, the system named is Daphnia. Conditions: cited from earlier work.
The subject of another data set is wild-type N2 worms. As to the kind of experiment: Pilot DART imaging of N2 worms treated with FUdR in a small-scale vivoChip. Format: in vivo, C. elegans. Conditions: for EC50: Caenorhabditis elegans, N2 L1 larvae, 0-10,000 μM, 72 hrs at 20° C., D1 adults. The method, then: as §1, §2
Chemical treatment in liquid culture: The age-synchronized L1 suspension (~100 larvae in 20 μl volumes) was placed in a standard 24-well plate with 480 μl HB101 (OD600^=3.0) suspension in S media. 2.5 μl of chemicals dissolved in H2O, or 1 μL of the chemicals in DMSO were added to the designated wells, keeping solvent concentration constant across all wells. Vehicle control wells received the same volume of each solvent (H2O or 0.2% DMSO). […]
For the initial testing of this hypothesis, this study explored the response of wild-type N2 worms when treated various doses of 5-Fluoro-2′-deoxyuridine (FUdR), a drug commonly used to prevent the development of live offspring in C. elegans experimental cultures. […] The length of all worms in each concentration were manually measured by taking the distance from the head to the tail of each animal. The study counted the total number of embryos and the number of embryos visibly moving within the eggshells in each worm through the time stacks (FIGS. 1C-1E).

A further data set has as its system C. elegans. As to the kind of experiment: Nile red (NR) staining of stored body lipids in vivoChip. It is filed as in vivo. Conditions: co-cultured for the entire 72 hours, versus control worms. As to the method:
Liquid culture of C. elegans: Worms are synchronized by bleaching a population of gravid C. elegans using the hypochlorite solution. The embryos are then incubated in a glass tube and rotated for 24 hours at 20° C. About 80 larval 1 (L1) worms are plated into a standard 24-well plastic plate with 500 μl S media and HB101 bacteria. The worms are exposed to chemicals or ingredients during the growth in the liquid media for 3 days in a 20° C. incubator.
Imaging of C. elegans using vivoChip: The C. elegans are fed with bacteria and treated with test chemicals for 72 hours in a 20° C. incubator. […] The vivoChip technology allows capture of bright field or fluorescence images from the worms immobilized inside the microfluidic channels.
Nile red (NR) staining to study body lipids: To stain lipid molecules in the C. elegans body, 30 ng/ml and 50 ng/mL were added to the liquid culture at the L1 stage (a total of 72-hour incubation) and L4 stage animals (a total of 24-hour incubation) and maintained the plate at 20° C. […] Bright-field and fluorescence (red filter set) were acquired to capture worm development and the stored lipids in the C. elegans populations.
Analysis of NR signal: The individual channels were analyzed to identify the NR signal, mainly within the worm intestinal […] (FIG. 23A). […]

Another data set concerns CL2166 strain. Conditions: CL2166, 5.66 μl of 3% H2O2 in 500 μl culture at 68 hours, 4 hours exposure.
A further data set concerns C. elegans pharynx. As to the kind of experiment: Pharynx size analysis from bright field images in vivoChip. It is filed as in vivo. The conditions noted are these: D1 adults, 1.6 μM, DMSO (0.25%), treated from L1 stage. The source says:
FIGS. 25A-25C depict identifying C. elegans organs and organ structures using high-resolution, bright field, and fluorescence images using the vivoChip platform. […] The schematic represents different organs that could be identified and analyzed using image processing or automated machine learning algorithms.
Identifying internal organs and organ structures of C. elegans using bright field and fluorescence images: Overall morphology of changes in different tissues within a C. elegans body. Due to the dynamic nature of the tissue architectures, it is expected to change over the animal's age. This approach was used to track tissue architecture during early adult stage C. elegans quantitatively (FIG. 25A). As an example, the study analyzed the pharynx within the C. elegans immobilized inside the vivoChip. […] This well-studied organ has been used to screen several therapeutic drugs and to characterize the amount of food intake readouts. […]
C. elegans pharynxes present in the best focal plane from individual channels were manually segmented. […] Once the C. elegans body is detected, specific organs can be characterized using the fluorescence reporter (transgenic strains) or fluorescent dyes (feeding or soaking with dye). For example, C. elegans were fed with FITC-dextran overnight to visualize the green signal using fluorescence imaging of device-immobilized animals. […]

Where “and” joins values, the source holds several entries; their conditions need not be identical. Equal values may be shown once. Read-outs that look alike come from different tables or passages of the source.

Method for CL2166 strain: Image analysis of the C. elegans body and fluorescence signal: The images from the vivoChip platform were cropped into individual channels. The study determined the best focal plane for each worm image (bright-field images) from the stack of images. Individual channel image was analyzed using machine-learning algorithms (developed by vivoVerse) to predict the mask for the worm body inside the individual microfluidic channel. Since several organs in the worm body have a 3D architecture, the study created a maximum-intensity projection of multiple z-slice fluorescence images. Using the maximum projection image, the study then calculated the integrated fluorescence signal within the predicted body mask. The study also estimated the background signal from the pixels outside the body mask and within two successive channel regions. The background signal was used to estimate the corrected total C. elegans fluorescence (CTCF)=integrated density−(area of selected C. elegans body×fluorescence of background readings)
The study treated a transgenic strain expressing GFP when exposed to oxidative stress to quantify the stress level in individual worms using high-resolution imaging to quantify sub-lethal changes in the stress levels.
5.66 μl of 3% H2O2 was added to the 500 μl S media culture with worms at 68 hours to induce oxidative stress. […]

With `CCCC1COC(Cn2cncn2)(c2ccc(Cl)cc2Cl)O1` (stereo not drawn) [propiconazole], the “concentration at which reduced growth rate left worms too small to be immobilized in the microfluidic channels” value with C. elegans N2 wild type (N2, 72 hrs) is recorded as at least 333 UM. In addition, in the data set on C. elegans N2 wild type (N2, L1 to D1, 72 hrs, Hill fit), the “body length EC10” value turned out to be 117.5 µM, the “body volume EC10” value is 74.9 µM, the “developed (moving+folded) embryos EC10” value was 10.9 µM and the “moving embryos EC10” value came to 10 µM. The “total embryos EC10” value in the data set on C. elegans N2 wild type (N2, L1 to D1, 72 hrs, Hill fit) came to 48.8 µM. For the same compound, the “concentration from which fecundity was affected” value in the data set on Fathead minnow was ≥ 0.5 mg/L and ≥ 1.46 μM. The “concentration from which embryonic development was affected” value in the data set on Daphnia was ≥ 0.5 mg/L and ≥ 1.46 μM.
For `O=c1[nH]c(=O)n([C@H]2C[C@H](O)[C@@H](CO)O2)cc1F` [FUdR, 5-Fluoro-2′-deoxyuridine], the EC50 came to 26 µM with wild-type N2 worms (read-out: moving embryo parameter, EC50); 316 µM in the data set with wild-type N2 worms (read-out: reduction in body length, EC50); 98 µM in the data set on wild-type N2 worms (read-out: reduction in the number of total embryos, EC50). The “concentration causing growth arrest at stages earlier than could be immobilized in the chip” value with wild-type N2 worms (N2 C. elegans, 0-10000 μM) is at least 500 µM.
As for `NCCc1c[nH]c2ccc(O)cc12` [5-HT, serotonin], the “amount of lipids in the body visualized using NR staining” value with C. elegans is “significantly lower amount of lipids”.
As for `OO` [H2O2, hydrogen peroxide], the “increase of GFP intensity” value with CL2166 strain is reported as ~ 60%.
In the case of `CCOP(=S)(OCC)Oc1nc(Cl)c(Cl)cc1Cl` [chlorpyrifos], in the data set with C. elegans pharynx, the “total pixels of pharynx compared to vehicle control (DMSO)” value is “reduced”.
